# What was measured:
# Type in all cases: cell-based
# Bax mRNA expression = assay: Bax RT-PCR in MDA-MB-231 cells; settings: various concentrations, serum free medium, FIGS. 11a, 11b
# Protocol: (§1) BCl2 and Bax genes are genes acting in apoptosis process. To identify BCl2 and Bax mRNA expressions, RT-PCR (reverse-transcription PCR) was performed. MDA-MB-231 cancer cells were grown in plates and added with E2.2 compound samples as a single agent in various concentrations. Experiment condition was performed in serum free medium. RNA total was isolated from MDA-MB-231 cancer cells. RNA isolation products were quantified using spectrophotometer and visualized by agarose gel electrophoresis technique. The RNAs were then used in RT-PCR process using specific primers. RT-PCR process was performed in PCR machine with optimized condition.
# MDA-MB-231 cells = assay: DNA fragmentation analysis (DNA Apoptosis Ladder Kit, gel electrophoresis); settings: MDA-MB-231 cells, 50, 75, and 100 μg/mL; FIG. 9
# Protocol: (§2) In this assay, the effect of E2.2 and F1 compounds as anti proliferation and E2.2 compound as apoptosis inducer against MDA-MB-231 cancer cells will be observed. MDA-MB-231 cells were cultured in supplemented medium cells, and then incubated at temperature 37° C., 5% CO2.
# Apoptosis is an active process of cell death marked with DNA chromosome cleavage, chromatin condensation, and also DNA fragmentation. In this experiment, it was observed the effect of E2.2 compound addition toward the formation of DNA fragmentation as one of apoptosis indicators. Cells were cultured in the plates. After incubation for 24 hours, it was added with E2.2 compound in various concentrations. DNA fragmentation determination was performed using DNA Apoptosis Ladder Kit.
# MDA-MB-231 cancer cells = assay: Anti-proliferation assay of MDA-MB-231 cancer cells (MTT); settings: for effect on proliferation of MDA-MB-231 cells (percentage of alive cancer cell): with increase of concentration, FIG. 7 (F1), FIG. 8 (E2.2)
# Protocol: as §2
# This assay was performed in 96-well plates. Each well contained certain cancer cell density. After incubation for 24 hours, medium was changed into serum free medium, after that it was added with E2.2 compound sample as a single agent in various concentrations, so was with F1 compound. Cells were then re-incubated and after that the number of alive cells after treatment was determined by cell death determination assay. Absorbance value was read in microplate reader. After the absorbance value was converted with standard curve, the number of alive and death cells can be obtained.
# Percentage of the number of alive cells in each treatment can be counted by counting the number of alive cells at wells that received treatment divided with the number of alive cells at healthy control and multiplied with 100%. % The number of alive cells=B/A×100% Notes: A is the number of alive cells at healthy control, and B is the number of alive cells that received treatment. IC50 value is a number showing a sample concentration that causes death as much as 50% in a population. Such value is obtained using BioStat statistical program. b. DNA Fragmentation Analysis Method
# BCl2 mRNA expression = assay: BCl2 RT-PCR in MDA-MB-231 cells; settings: various concentrations, serum free medium, FIGS. 10a, 10b
# Protocol: as §1
SMILES,Bax mRNA level (Bax mRNA expression),formation of DNA fragments (apoptosis marker) (MDA-MB-231 cells),"IC50 (MDA-MB-231 cancer cells; Homo sapiens, MDA-MB-231 cells, MTT result, serum free medium, BioStat statistical program)",effect on proliferation of MDA-MB-231 cells (percentage of alive cancer cell) (MDA-MB-231 cancer cells),BCl2 mRNA expression (BCl2 mRNA expression),"IC50 value (MDA-MB-231 cancer cells; MDA-MB-231 cells, MTT result, serum free medium, BioStat statistical program)"
"COc1cc(O)c(C(=O)c2ccc(O)cc2)c(O)c1 [E2.2, 2,4′,6-trihydroxy-4-methoxybenzophenone]",upregulation,apoptosis inducer effect,36.9 µg/mL,anti proliferation effect,downregulation,–
"COc1cc(O)c(C(=O)c2ccc(O)cc2)c(O[C@@H]2O[C@H](CO)[C@@H](O)[C@H](O)[C@H]2O)c1 [F1, 4′,6-di-hydroxy-4-methoxybenzophenone-2-O-β-D-glycopyranoside]",–,–,–,anti proliferation effect,–,65.80 µg/mL

# From US8569382B2, “Isolated compounds from Phaleria macrocarpa as anti-cancer agents” (PT. Dexa Medica, priority 2008, dated 2013)
